Data as given in US11274083B2, “Substituted thiophenyl uracils, salts thereof and the use thereof as herbicidal agents” (Syngenta Crop Protection AG, priority 2017, dated 2022).

What was measured:
Type in all cases: in vivo
Abutilon theophrasti [1] = assay: Herbicidal action post-emergence, greenhouse pot test; details: application rate 80 g/ha
Procedure, shortened: (§1)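 Spray application onto green parts at one-leaf stage, ≤80 g/ha, 600 L/ha water, 0.5% additive. Visual rating ~3 weeks later, 0–100% vs untreated controls.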

Alopecurus myosuroides [2] = assay: as above; details: application rate 80 g/ha, scored visually after about 3 weeks vs untreated controls
Procedure, shortened: as §1

Amaranthus retroflexus [3] = assay: as above; details: application rate 80 g/ha
Procedure, shortened: as §1

Avena fatua = assay: as above; details: application rate 80 g/ha
Procedure, shortened: as §1

Echinochloa crus-galli [4] = assay: as above; details: application rate 80 g/ha
Procedure, shortened: as §1

Lolium multiflorum [5] = assay: as above; details: application rate 80 g/ha
Procedure, shortened: as §1

Matricaria inodora [6] = assay: as above; details: application rate 80 g/ha
Procedure, shortened: as §1

Pharbitis purpurea [7] = assay: as above; details: application rate 80 g/ha
Procedure, shortened: as §1

Polygonum convolvulus [8] = assay: as above; details: application rate 80 g/ha
Procedure, shortened: as §1

Setaria viridis [9] = assay: as above; details: application rate 80 g/ha
Procedure, shortened: as §1

Stellaria media [10] = assay: as above; details: application rate 80 g/ha
Procedure, shortened: as §1

Veronica persica [11] = assay: as above; details: application rate 80 g/ha
Procedure, shortened: as §1

Viola tricolor [12] = assay: as above; details: application rate 80 g/ha
Procedure, shortened: as §1

Oryza sativa = assay: Crop compatibility post-emergence, greenhouse pot test; details: application rate 20 g/ha
Procedure, shortened: (§2)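 Greenhouse post-emergence spray at one-leaf stage, 600 L/ha with 0.5% additive. Injury was assessed visually after about 3 weeks as % of untreated control.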

Triticum aestivum = assay: as above
Procedure, shortened: as §2

Abutilon theophrasti [13] = assay: Herbicidal action pre-emergence, greenhouse pot test; details: application rate 320 g/ha
Procedure, shortened: (§3)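 In this greenhouse test, spray went onto the soil before weed emergence at application rates up to 320 g/ha. Efficacy was rated by eye as a percentage of the untreated control roughly three weeks later.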

Alopecurus myosuroides [14] = assay: as above
Procedure, shortened: as §3

Amaranthus retroflexus [15] = assay: as above
Procedure, shortened: as §3

Cyperus esculentus = assay: as above; details: application rate 320 g/ha
Procedure, shortened: as §3

Echinochloa crus-galli [16] = assay: as above; details: application rate 320 g/ha
Procedure, shortened: as §3

Lolium multiflorum [17] = assay: as above; details: application rate 80 g/ha, scored visually after about 3 weeks vs untreated controls
Procedure, shortened: as §3

Pharbitis purpurea [18] = assay: as above; details: application rate 320 g/ha
Procedure, shortened: as §3

Polygonum convolvulus [19] = assay: as above; details: application rate 320 g/ha
Procedure, shortened: as §3

Setaria viridis [20] = assay: as above; details: application rate 320 g/ha
Procedure, shortened: as §3

Stellaria media [21] = assay: as above; details: application rate 320 g/ha
Procedure, shortened: as §3

Veronica persica [22] = assay: as above; details: application rate 320 g/ha
Procedure, shortened: as §3

Viola tricolor [23] = assay: as above; details: application rate 320 g/ha
Procedure, shortened: as §3

Matricaria inodora [24] = assay: as above; details: application rate 320 g/ha
Lolium rigidum [25] = assay: Herbicidal action post-emergence, greenhouse pot test; details: application rate 80 g/ha
Procedure, shortened: as §1

Zea mays = assay: Crop compatibility post-emergence, greenhouse pot test; details: application rate 20 g/ha
Procedure, shortened: as §2

Hordeum murinum = assay: Herbicidal action pre-emergence, greenhouse pot test; details: application rate 320 g/ha
Procedure, shortened: as §3

Lolium rigidum [26] = assay: as above; details: application rate 320 g/ha
Procedure, shortened: as §3

Digitaria sanguinalis [27] = assay: Herbicidal action post-emergence, greenhouse pot test; details: application rate 80 g/ha
Digitaria sanguinalis [28] = assay: Herbicidal action pre-emergence, greenhouse pot test; details: application rate 320 g/ha
Source text: Seeds of mono- and dicotyledonous weeds and crop plants were laid out in plastic or organic plant pots and covered with soil. The compounds of the invention formulated in the form of wettable powders (WP) or as emulsion concentrates (EC) were then applied to the surface of the covering soil as an aqueous suspension or emulsion with addition of 0.5% additive at a water application rate equivalent to 600 L/ha. After the treatment, the pots were placed in a greenhouse and kept under good growth conditions for the test plants. After about 3 weeks, the efficacy of the preparations was scored visually as a percentage by comparison with untreated controls. For example, 100% efficacy=plants have died. 0% efficacy=like control plants.

| Oryza sativa (Efficacy in %) (Oryza sativa) [%] | Structure (SMILES) | Abutilon theophrasti (Efficacy in %) (Abutilon theophrasti [1]) [%] | Alopecurus myosuroides (Efficacy in %) (Alopecurus myosuroides [2]) [%] | Amaranthus retroflexus (Efficacy in %) (Amaranthus retroflexus [3]) [%] | Avena fatua (Efficacy in %) (Avena fatua) [%] | Echinochloa crus-galli (Efficacy in %) (Echinochloa crus-galli [4]) [%] | Matricaria inodora (Efficacy in %) (Matricaria inodora [6]) [%] | Pharbitis purpurea (Efficacy in %) (Pharbitis purpurea [7]) [%] | Polygonum convolvulus (Efficacy in %) (Polygonum convolvulus [8]) [%] | Setaria viridis (Efficacy in %) (Setaria viridis [9]) [%] | Stellaria media (Efficacy in %) (Stellaria media [10]) [%] | Veronica persica (Efficacy in %) (Veronica persica [11]) [%] | Viola tricolor (Efficacy in %) (Viola tricolor [12]) [%] | Abutilon theophrasti (Efficacy in %) (Abutilon theophrasti [13]) [%] | Echinochloa crus-galli (Efficacy in %) (Echinochloa crus-galli [16]) [%] | Pharbitis purpurea (Efficacy in %) (Pharbitis purpurea [18]) [%] | Polygonum convolvulus (Efficacy in %) (Polygonum convolvulus [19]) [%] | Setaria viridis (Efficacy in %) (Setaria viridis [20]) [%] | Stellaria media (Efficacy in %) (Stellaria media [21]) [%] | Veronica persica (Efficacy in %) (Veronica persica [22]) [%] | also measured |
| --- | --- | --- | --- | --- | --- | --- | --- | --- | --- | --- | --- | --- | --- | --- | --- | --- | --- | --- | --- | --- | --- |
| 20 | CCOC(=O)CCOC(=O)C(C)Sc1cc(-n2c(=O)cc(C(F)(F)F)n(C)c2=O)c(F)cc1Cl (centres unmarked) [I.1-3] | 100 | 100 | 100 | 80 | 100 | 100 | 100 | 100 | 100 | 100 | 100 | 100 | 100 | 100 | 100 | 100 | 100 | 100 | 100 | Lolium multiflorum (Efficacy in %) (Lolium multiflorum [5]): 100%; Triticum aestivum (Efficacy in %) (Triticum aestivum; application rate 20 g/ha): 10%; Alopecurus myosuroides (Efficacy in %) (Alopecurus myosuroides [14]; application rate 80 g/ha): 90%; Amaranthus retroflexus (Efficacy in %) (Amaranthus retroflexus [15]; application rate 80 g/ha): 100%; Cyperus esculentus (Efficacy in %) (Cyperus esculentus): 100%; Lolium multiflorum (Efficacy in %) (Lolium multiflorum [17]): 100%; Viola tricolor (Efficacy in %) (Viola tricolor [23]): 100%; Matricaria inodora (Efficacy in %) (Matricaria inodora [24]): 100% |
| 20 | COC(=O)C(C)(C)COC(=O)C(C)Sc1cc(-n2c(=O)cc(C(F)(F)F)n(C)c2=O)c(F)cc1Cl (centres unmarked) [I.1-32] | 100 | 80 | 100 | 80 | 100 | 100 | 100 | 100 | 100 | 100 | 100 | 100 | 100 | 100 | 100 | 100 | 100 | 100 | 100 | Lolium rigidum (Efficacy in %) (Lolium rigidum [25]): 100%; Triticum aestivum (Efficacy in %) (Triticum aestivum; application rate 5 g/ha): 20%; Zea mays (Efficacy in %) (Zea mays): 20%; Alopecurus myosuroides (Efficacy in %) (Alopecurus myosuroides [14]; application rate 320 g/ha): 90%; Amaranthus retroflexus (Efficacy in %) (Amaranthus retroflexus [15]; application rate 320 g/ha): 100%; Hordeum murinum (Efficacy in %) (Hordeum murinum): 90%; Lolium rigidum (Efficacy in %) (Lolium rigidum [26]): 90%; Viola tricolor (Efficacy in %) (Viola tricolor [23]): 100%; Matricaria inodora (Efficacy in %) (Matricaria inodora [24]): 100%; Digitaria sanguinalis (Efficacy in %) (Digitaria sanguinalis [27]): 100%; Digitaria sanguinalis (Efficacy in %) (Digitaria sanguinalis [28]): 100% |
